Measurements: ChEMBL document CHEMBL3885881, “DrugMatrix”

Species: Rattus norvegicus
Test: DrugMatrix - Regimen: Daily Repeat
Format: toxicity, organism-based, Sprague-Dawley
Design: regimen Daily Repeat, gender Male, age 6-8 weeks
Conditions: in vivo, po, 0 mg/kg, route oral GAVAGE, dose level Control, […]; for ABSOLUTE BASOPHIL / ABSOLUTE EOSINOPHIL / ABSOLUTE LYMPHOCYTE / ABSOLUTE MONOCYTE / ABSOLUTE SEGMENTED NEUTROPHIL / BASOPHIL / EOSINOPHIL / ERYTHROCYTE COUNT / HEMATOCRIT / HEMOGLOBIN / LEUKOCYTE COUNT / LYMPHOCYTE / MEAN CORPUSCULAR HEMOGLOBIN / MEAN CORPUSCULAR HEMOGLOBIN CONCENTRATION / MEAN CORPUSCULAR VOLUME / MONOCYTE / NEUTROPHIL / NUCLEATED RED BLOOD CELLS / PLATELET COUNT: tissue Blood; for ALANINE AMINOTRANSFERASE / ALKALINE PHOSPHATASE / ASPARTATE AMINOTRANSFERASE / BLOOD UREA NITROGEN / CARBON DIOXIDE / CHLORIDE / CHOLESTEROL / CREATINE PHOSPHOKINASE / CREATININE / GLUCOSE / LACTATE DEHYDROGENASE / LIPASE / PHOSPHORUS / POTASSIUM / SODIUM / TOTAL BILIRUBIN / TOTAL PROTEIN / URIC ACID: tissue Plasma

## CC(=O)[C@H]1CC[C@H]2[C@@H]3CCC4=CC(=O)CC[C@]4(C)[C@H]3CC[C@]12C [PROGESTERONE]
72 h, time 3 day
  ABSOLUTE BASOPHIL: 0 CELLS/uL
  ABSOLUTE EOSINOPHIL: 41.83 CELLS/uL
  ABSOLUTE LYMPHOCYTE: 8545.5 CELLS/uL
  ABSOLUTE MONOCYTE: 240 CELLS/uL
  ABSOLUTE SEGMENTED NEUTROPHIL: 906 CELLS/uL
  BASOPHIL: 0%
  EOSINOPHIL: 0.33%
  ERYTHROCYTE COUNT: 5.6 x10E6/uL
  HEMATOCRIT: 35.4%
  HEMOGLOBIN: 13.42 G/DL
  LEUKOCYTE COUNT: 9.73 x10E3/uL
  LYMPHOCYTE: 87.83%
  MEAN CORPUSCULAR HEMOGLOBIN: 23.98 pg
  MEAN CORPUSCULAR HEMOGLOBIN CONCENTRATION: 37.92 G/DL
  MEAN CORPUSCULAR VOLUME: 63.3 fL
  MONOCYTE: 2.5%
  NEUTROPHIL: 9.33%
  NUCLEATED RED BLOOD CELLS: 0 /100WBC
  PLATELET COUNT: 1032 x10E3/uL
  ALANINE AMINOTRANSFERASE: 72.83 u/L
  ALKALINE PHOSPHATASE: 322.83 u/L
  ASPARTATE AMINOTRANSFERASE: 102.67 u/L
  BLOOD UREA NITROGEN: 12 mg/dL
  CARBON DIOXIDE: 34.33 mmol/L
  CHLORIDE: 97.67 MEQ/L
  CHOLESTEROL: 82.5 mg/dL
  CREATINE PHOSPHOKINASE: 410.33 u/L
  CREATININE: 0.18 mg/dL
  GLUCOSE: 164.5 mg/dL
  LACTATE DEHYDROGENASE: 119.5 u/L
  LIPASE: 11.83 u/L
  PHOSPHORUS: 9.52 mg/dL
  POTASSIUM: 5.56 MEQ/L
  SODIUM: 142.48 MEQ/L
  TOTAL BILIRUBIN: 0.18 mg/dL
  TOTAL PROTEIN: 5.77 G/DL
  URIC ACID: 0.48 mg/dL
120 h, time 5 day
  ABSOLUTE BASOPHIL: 0 CELLS/uL
  ABSOLUTE EOSINOPHIL: 0 CELLS/uL
  ABSOLUTE LYMPHOCYTE: 9065 CELLS/uL
  ABSOLUTE MONOCYTE: 341.33 CELLS/uL
  ABSOLUTE SEGMENTED NEUTROPHIL: 527 CELLS/uL
  BASOPHIL: 0%
  EOSINOPHIL: 0%
  ERYTHROCYTE COUNT: 5.25 x10E6/uL
  HEMATOCRIT: 34.08%
  HEMOGLOBIN: 13.5 G/DL
  LEUKOCYTE COUNT: 9.93 x10E3/uL
  LYMPHOCYTE: 91.17%
  MEAN CORPUSCULAR HEMOGLOBIN: 25.7 pg
  MEAN CORPUSCULAR HEMOGLOBIN CONCENTRATION: 39.62 G/DL
  MEAN CORPUSCULAR VOLUME: 64.93 fL
  MONOCYTE: 3.33%
  NEUTROPHIL: 5.5%
  NUCLEATED RED BLOOD CELLS: 0 /100WBC
  PLATELET COUNT: 1077.5 x10E3/uL
  ALANINE AMINOTRANSFERASE: 57.83 u/L
  ALKALINE PHOSPHATASE: 319.17 u/L
  ASPARTATE AMINOTRANSFERASE: 83.33 u/L
  BLOOD UREA NITROGEN: 13.67 mg/dL
  CARBON DIOXIDE: 30.83 mmol/L
  CHLORIDE: 98.33 MEQ/L
  CHOLESTEROL: 64.83 mg/dL
  CREATINE PHOSPHOKINASE: 263.67 u/L
  CREATININE: 0.2 mg/dL
  GLUCOSE: 182.83 mg/dL
  LACTATE DEHYDROGENASE: 124 u/L
  LIPASE: 10.5 u/L
  PHOSPHORUS: 10 mg/dL
  POTASSIUM: 5.78 MEQ/L
  SODIUM: 142.48 MEQ/L
  TOTAL BILIRUBIN: 0.2 mg/dL
  TOTAL PROTEIN: 6 G/DL
  URIC ACID: 0.7 mg/dL
